From publication PMC5704756, “Hydrolysis, polarity, and conformational impact of C-terminal partially fluorinated ethyl esters in peptide models” (Beilstein Journal of Organic Chemistry, 2017)
Where two headings read alike, the source gives them in different places.

Experiments:
[1] = Hydrolytic stability of esters 1–5 in aqueous potassium phosphate buffer, monitored by 1H and 19F NMR; assay type: physicochemical; details: for τ½, min (aq buffer): pH 11.0, 298 K, ester hydrolysis, pseudo-first order
Text: The kinetic stability of the ester linkage in the aqueous medium is of critical importance, as it further defines the time window for the reactions with the corresponding esters under the biologically relevant conditions of aqueous buffers. Hydrolysis of the C-terminal esters has been fairly well described in the literature, indicating the hydrolysis occurs via a pseudo-first order reaction in a buffered medium assuming that [HO^−] is constant (Equations 1–3): […]
Next, we determined the half-life values following the above mentioned kinetic model for esters 1–5 in aqueous medium at pH 11 and 298 K (Figure 2). […] For the subsequent fluorine atoms, the hydrolysis rate increased by a factor of 3–4 for each appended fluorine atom. […] Extrapolation to pH 8.0 gives a value of 107 ± 28 hours. (This procedure requires multiplication by 1000.) We experimentally determined the half-life of 5 at pH 8 to be 102 ± 2 hours, which agrees well with the extrapolation. The mutual consistency of the values determined with different kinetic modes (minutes at pH 11, days at pH 8) provides a good indication of their accuracy.
Aqueous potassium phosphate buffer (100 mM) at pH 11.0 or 8.0 was mixed with 1:10 (v/v) deuterium oxide to give 550 μL of 91 mM buffer. The analyte 1–5 was added from a 200 mM stock solution in deuterium oxide to give 0.5 mM analyte. The first NMR spectra were collected within 4 min following addition of the analyte. The monitoring was continued by recording ^1H and ^19F NMR spectra at regular time points until >50% hydrolysis. Ambient temperature was maintained at 298 ± 1 K. The decay of the integral intensity of the analyte was quantified by integration. Plotting the logarithm of the intensity versus time delivered the kinetic constant, which was converted to the half-life time (squared correlation coefficient > 0.90). The experiments were performed in triplicate.

[2] = Partitioning between octan-1-ol and water (NMR detection); assay type: physicochemical; details: for logP at 24 h: 298 K, 24 hours partitioning, NMR
Protocol: To characterize the lipophilicity, esters 1–5 were subjected to 24 hours of partitioning between octan-1-ol and water at 298 K. The resulting partition is illustrated in Figure 3. […] The lipophilicity of 2,2-difluoroethyl derivative 4 is nearly identical to that of parent ethyl ester 2, and the relative difference in the logP from the increase (5 vs 4, ΔlogP = +0.53 ± 0.13) and decrease (3 vs 4, ΔlogP = −0.45 ± 0.13) in the number of fluorine atoms are equivalent to one methyl group difference (2 vs 1, ΔlogP = +0.44 ± 0.08). The amplitude of the change is similar to that reported recently for the corresponding fluorinated ethanols. Importantly, C-terminal esterification maintains a much higher lipophilicity compared with the C-terminal amide 7 (Table 1).
To 4–5 mg analyte, octan-1-ol (1.00 mL) and deionized water (1.00 mL) were added. The mixture was shaken gently at ambient temperature (298 ± 2 K) for 24 hours. Each phase (200 μL) was sampled using identical NMR tubes, and acetonitrile-d3 (300 μL) was added to each sample. The NMR measurements were performed by ^1H or ^19F detection at 298 K using calibrated 90-degree pulses and one-scan experiments in order to ensure complete pre-relaxation. The same acquisition parameters were used for the octan-1-ol and water samples; for processing, only the zero phase was adjusted. The spectra were baseline corrected, and equivalent resonances were integrated. The ratio between the signal intensities was considered as the partitioning constant. The partitioning experiments were performed in triplicate. Subsequent addition of water and octan-1-ol was performed in forward and reverse manner, and the resulting partitioning constants were identical within experimental error.

[3] = Amide rotational thermodynamics and kinetics (trans/cis isomerism) by NMR / EXSY; assay type: physicochemical; details: for Ktrans/cis in C6D6: C6D6 (ε 2.27); for Ktrans/cis in C6D6 / Ktrans/cis in CD2Cl2 / Ktrans/cis in CD3CN / Ktrans/cis in CD3OD / Ktrans/cis in CDCl3 / Ktrans/cis in D2O: 298 K; for Ktrans/cis in C6D6 / Ktrans/cis in D2O: analyte 50 ± 10 mM; for k∙10^3 cis→trans in C6D6 / k∙10^3 trans→cis in C6D6: C6D6, 298 K; for k∙10^3 cis→trans in C6D6 / k∙10^3 trans→cis in C6D6 / k∙10^3 cis→trans in D2O / k∙10^3 trans→cis in D2O: EXSY NMR, amide rotation, value is k∙10^3; for Ktrans/cis in CD2Cl2: CD2Cl2 (ε 8.93); for Ktrans/cis in CD3OD: CD3OD (ε 32.7); for Ktrans/cis in CDCl3: CDCl3 (ε 4.81); for Ktrans/cis in D2O: D2O (ε 80.1), 1H/19F NMR; for k∙10^3 cis→trans in D2O / k∙10^3 trans→cis in D2O: 310 K
Text: For 1–5, we found the trans/cis ratios ≈ 5 for all five esters when measured in aqueous medium; the kinetic parameters of the amide rotation were also nearly identical (Table 2). We then noticed that the trans/cis ratios measured for the fluorine-labeled esters 3–5 in nonpolar solvents (such as benzene) were systematically higher relative to the reference compounds 1 and 2. We tested the relative increase in the trans-amide preference ΔΔG as a function of solvent (Equation 4) and found a dependence of this parameter on the dielectric constant, as would be expected from an electrostatic interaction between the polar alkoxy group and the amide moiety (Figure 4).
The amide rotational thermodynamic and kinetic measurements were performed by NMR as described in [50, 68]. The equilibrium ratio between the rotameric states was obtained from the ^1H, ^19F and ^19F{^1H} (inverse-gated decoupling) spectra at 298 K by integration. The kinetics was measured in ^1H and/or ^19F{^1H} z-cross-relaxation experiments at either 310 K (for deuterium oxide samples) or 298 K (for benzene samples). The Jαβ-coupling values were obtained by visual inspection of the α-CH resonances in the ^1H NMR spectra, and the accuracy was defined by the length of the time domain spectrum at approximately 0.3 Hz. The semi-empirical calculations were performed by using the PM6 algorithm from the MOPAC package. DFT geometry optimization of the 5 amide rotamers was performed using B88-PW91 GGA with the DZVP basis set.

[4] = parameters: method as in doi:10.1002/ijch.201600106; details: 310 K, amide rotation, value is k∙10^3, ref [69]; cited from earlier work

With `COC(=O)C1CCCN1C(C)=O` (stereo not drawn) [compound 1, Methyl N-acetylprolinate] the “τ½, min (aq buffer)” value [1] was 224 ± 20 (pH 11.0) min, the logP at 24 h ([2]; octan-1-ol/water) was -0.44 ± 0.05 and the “Ktrans/cis in C6D6” value [3] was 5.10 ± 0.10. For the same compound, the “k∙10^3 cis→trans in C6D6” value [3] was 342 ± 10 s^−1, the “k∙10^3 trans→cis in C6D6” value [3] was 67 ± 2 s^−1 and the “Ktrans/cis in CD2Cl2” value [3] was 4.18±0.03. For the same compound, the “Ktrans/cis in CD3CN” value [3] was 4.08±0.04, the “Ktrans/cis in CD3OD” value [3] was 3.78±0.03 and the “Ktrans/cis in CDCl3” value [3] was 3.84±0.04. For the same compound, the “Ktrans/cis in D2O” value [3] was 4.94 ± 0.05, the “k∙10^3 cis→trans in D2O” value [4] was 33 ± 2^c s^−1 and the “k∙10^3 trans→cis in D2O” value [4] was 7.0 ± 0.5^c s^−1.

For `CCOC(=O)C1CCCN1C(C)=O` (stereo not drawn) [compound 2, Ethyl N-acetylprolinate], the “τ½, min (aq buffer)” value [1] was 603 ± 58 (pH 11.0) min, the “ΔlogP vs 1” value ([2]; octan-1-ol/water, relative to compound 1) was “+0.44 ± 0.08” and the logP at 24 h ([2]; octan-1-ol/water) was 0. For the same compound, the “Ktrans/cis in C6D6” value [3] was 4.67 ± 0.03, the “k∙10^3 cis→trans in C6D6” value [3] was 309 ± 14 s^−1 and the “k∙10^3 trans→cis in C6D6” value [3] was 67 ± 2 s^−1. For the same compound, the “Ktrans/cis in CD2Cl2” value [3] was 3.52±0.03, the “Ktrans/cis in CD3CN” value [3] was 3.58±0.04 and the “Ktrans/cis in CD3OD” value [3] was 3.49±0.04. The “Ktrans/cis in CDCl3” value [3] was 3.20±0.04, the “Ktrans/cis in D2O” value [3] was 4.60 ± 0.08 and the “k∙10^3 cis→trans in D2O” value [3] was 20 ± 5 s^−1. The “k∙10^3 trans→cis in D2O” value [3] was 6 ± 1 s^−1.

In the case of `CC(=O)N1CCC[C@H]1C(=O)OCCF` [compound 3, 2-Fluoroethyl N-acetylprolinate], the “τ½, min (aq buffer)” value [1] is reported as 80 ± 14 (pH 11.0) min, the logP at 24 h [2] is reported as -0.43 ± 0.07 and the “ΔlogP vs 4” value ([2]; octan-1-ol/water, relative to compound 4) is reported as −0.45 ± 0.13. The “Ktrans/cis in C6D6” value [3] was 6.80 ± 0.04, the “k∙10^3 cis→trans in C6D6” value [3] was 348 ± 11 s^−1 and the “k∙10^3 trans→cis in C6D6” value [3] was 52 ± 2 s^−1. The “Ktrans/cis in CD2Cl2” value [3] was 4.77±0.10, the “Ktrans/cis in CD3CN” value [3] was 4.12±0.17 and the “Ktrans/cis in CD3OD” value [3] was 3.61±0.03. For the same compound, the “Ktrans/cis in CDCl3” value [3] was 4.44±0.20, the “Ktrans/cis in D2O” value [3] was 4.74 ± 0.04 and the “k∙10^3 cis→trans in D2O” value [3] was 30 ± 2 s^−1. For the same compound, the “k∙10^3 trans→cis in D2O” value [3] was 7 ± 1 s^−1.

For `CC(=O)N1CCC[C@H]1C(=O)OCC(F)F` [compound 4, 2,2-Difluoroethyl N-acetylprolinate], the half-life at 0.5 mM ([1]; aqueous potassium phosphate buffer, pH 7, extrapolated from pH 11 value, read-out: half-life extrapolated to pH 7.0 (converted)) was 137 days, the “τ½, min (aq buffer)” value [1] was 19.7 ± 2.5 (pH 11.0) min and the logP at 24 h ([2]; octan-1-ol/water) was 0.02. The “Ktrans/cis in C6D6” value [3] was 9.06 ± 0.26, the “k∙10^3 cis→trans in C6D6” value [3] was 430 ± 17 s^−1 and the “k∙10^3 trans→cis in C6D6” value [3] was 47 ± 2 s^−1. The “Ktrans/cis in CD2Cl2” value [3] was 6.57±0.14, the “Ktrans/cis in CD3CN” value [3] was 4.85±0.07 and the “Ktrans/cis in CD3OD” value [3] was 4.12±0.03. The “Ktrans/cis in CDCl3” value [3] was 6.29±0.22, the “Ktrans/cis in D2O” value [3] was 4.95 ± 0.05 and the “k∙10^3 cis→trans in D2O” value [3] was 32 ± 4 s^−1. For the same compound, the “k∙10^3 trans→cis in D2O” value [3] was 7 ± 1 s^−1.
